# Target: PD-1/PD-L1 (Homo sapiens (Human), UniProt Q9NZQ7)
# Test: PD-1/PD-L1 biochemical protein-protein interaction assay (ALPHA)
# Details: 0.3 nM His tagged PD-L1, 2.5 nM biotinylated Fc-PD-1, 60 minutes at 25° C., read-out: IC50 PD-L1-PD1
# Chain of PD-1/PD-L1 (Q9NZQ7 19-238): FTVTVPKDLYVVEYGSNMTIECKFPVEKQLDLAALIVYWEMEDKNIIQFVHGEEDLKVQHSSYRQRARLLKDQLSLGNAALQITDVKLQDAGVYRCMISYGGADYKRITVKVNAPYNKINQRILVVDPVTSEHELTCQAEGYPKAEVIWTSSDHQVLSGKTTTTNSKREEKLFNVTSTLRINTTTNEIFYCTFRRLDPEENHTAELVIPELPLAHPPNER
row,IC50,SMILES
1,1.87 nM,COc1nc(-c2cccc(-c3cccc(-c4cnc(CNC[C@@H]5CCC(=O)N5)cn4)c3Cl)c2Cl)ccc1CNC[C@@H]1CCC(=O)N1 [compound 440]
2,0.064 nM,COc1nc(-c2cccc(-c3cccc(-c4cnc(CN5CCC(c6cn[nH]c6)C5)c(OC)n4)c3Cl)c2Cl)cnc1CNC[C@@H]1CCC(=O)N1 (some centres unmarked) [compound 441]
3,0.146 nM,COc1nc(-c2cccc(-c3cccc(-c4cnc(CN5CCC(C)(CO)C5)c(OC)n4)c3Cl)c2Cl)cnc1CNC[C@@H]1CCC(=O)N1 (some centres unmarked) [compound 442]
4,0.246 nM,COc1nc(-c2cccc(-c3cccc(-c4cnc(CN5CCC(C)(OC)C5)c(OC)n4)c3Cl)c2Cl)cnc1CNC[C@@H]1CCC(=O)N1 (some centres unmarked) [compound 443]
5,0.074 nM,COc1nc(-c2cccc(-c3cccc(-c4cnc(CN5CC6(CNC(=O)C6)C5)c(OC)n4)c3Cl)c2Cl)cnc1CN1CC(C)(O)C1 [compound 444]
6,0.069 nM,COc1nc(-c2cccc(-c3cccc(-c4cnc(CN5CC6(CCC(=O)N6)C5)c(OC)n4)c3Cl)c2Cl)cnc1CN1CC(C)(O)C1 [compound 445]
7,0.138 nM,COc1nc(-c2cccc(-c3cccc(-c4cnc(CN5CC(C)(O)C5)c(OC)n4)c3Cl)c2Cl)cnc1CNC[C@H]1CCC(=O)N1 [compound 446]
8,0.064 nM,COc1nc(-c2cccc(-c3cccc(-c4cnc(CN5CC6(C5)CN(C(C)=O)C6)c(OC)n4)c3Cl)c2Cl)cnc1CN1CC(C)(O)C1 [compound 447]
9,0.064 nM,COc1nc(-c2cccc(-c3cccc(-c4cnc(CN5CC(C)(O)C5)c(OC)n4)c3Cl)c2Cl)cnc1CN1CC[C@@H](CO)C1 [compound 448]
10,0.285 nM,COc1nc(-c2cccc(-c3cccc(-c4cnc(CN5CC(C)(O)C5)c(OC)n4)c3Cl)c2Cl)cnc1CNCCO [compound 449]
11,0.064 nM,COc1nc(-c2cccc(-c3cccc(-c4cnc5c(CN6CC7(CCC(=O)N7)C6)cn(C)c5c4)c3Cl)c2Cl)cnc1CN1CC2(CCC(=O)N2)C1 [compound 450]
12,0.101 nM,COc1nc(-c2cccc(-c3cccc(-c4cnc5c(CN6CC7(C6)CN(C(C)=O)C7)cn(C)c5c4)c3Cl)c2Cl)cnc1CN1CC2(C1)CN(C(C)=O)C2 [compound 451]
13,0.086 nM,CCC(=O)NC1CCN(Cc2ncc(-c3cccc(-c4cccc(-c5cnc(CNC[C@@H]6CCC(=O)N6)c(OC)n5)c4Cl)c3Cl)nc2OC)C1 (some centres unmarked) [compound 452]
14,0.139 nM,COc1nc(-c2cccc(-c3cccc(-c4cnc(CN5CCCC5(C)CO)c(OC)n4)c3Cl)c2Cl)cnc1CNC[C@@H]1CCC(=O)N1 (some centres unmarked) [compound 453]
15,0.064 nM,COc1nc(-c2cccc(-c3cccc(-c4cnc(CNCCOC(N)=O)c(OC)n4)c3Cl)c2Cl)cnc1CNCCOC(N)=O [compound 454]
16,0.145 nM,COc1nc(-c2cccc(-c3cccc(-c4cnc(CNCc5cnn(CCO)c5)c(OC)n4)c3Cl)c2Cl)cnc1CNCc1cnn(CCO)c1 [compound 455]
17,0.186 nM,COc1nc(-c2cccc(-c3cccc(-c4cnc(CNCc5cn[nH]c5)c(OC)n4)c3Cl)c2Cl)cnc1CNCc1cn[nH]c1 [compound 456]
18,0.172 nM,COc1nc(-c2cccc(-c3cccc(-c4cnc(CN5CCC([C@H](C)O)CC5)c(OC)n4)c3Cl)c2Cl)cnc1CNC[C@@H]1CCC(=O)N1 [compound 457]
19,0.087 nM,COc1nc(-c2cccc(-c3cccc(-c4cnc(CN[C@H]5CC[C@@H](C#N)C5)c(OC)n4)c3Cl)c2Cl)cnc1CNC[C@@H]1CCC(=O)N1 [compound 458]
20,0.344 nM,COc1nc(-c2cccc(-c3cccc(-c4cnc(CN(C)C[C@H]5C[C@H](O)C5)c(OC)n4)c3Cl)c2Cl)cnc1CNC[C@@H]1CCC(=O)N1 [compound 459]
21,0.157 nM,COCC1(CO)CCN(Cc2ncc(-c3cccc(-c4cccc(-c5cnc(CN6CCC(CO)(COC)C6)c(OC)n5)c4Cl)c3Cl)nc2OC)C1 (centres unmarked) [compound 460]
22,0.159 nM,COc1nc(-c2cccc(-c3cccc(-c4cnc(CNC[C@@H]5CCC(=O)N5)c(OC)n4)c3Cl)c2Cl)cnc1CNCCc1nnc[nH]1 [compound 461]
23,0.346 nM,COc1nc(-c2cccc(-c3cccc(-c4cnc(CN5CCC(c6nnc[nH]6)C5)c(OC)n4)c3Cl)c2Cl)cnc1CNC[C@@H]1CCC(=O)N1 (some centres unmarked) [compound 462]
24,0.076 nM,COCC1(CO)CCN(Cc2ncc(-c3cccc(-c4cccc(-c5cnc(CNC[C@@H]6CCC(=O)N6)c(OC)n5)c4Cl)c3Cl)nc2OC)C1 (some centres unmarked) [compound 463]
25,0.11 nM,COc1nc(-c2cccc(-c3cccc(-c4cnc(CN[C@H]5C[C@@H](C(N)=O)C5)c(OC)n4)c3Cl)c2Cl)cnc1CNC[C@@H]1CCC(=O)N1 [compound 464]
26,0.158 nM,COc1nc(-c2cccc(-c3cccc(-c4cnc(CN[C@H]5C[C@H](C(N)=O)C5)c(OC)n4)c3Cl)c2Cl)cnc1CNC[C@@H]1CCC(=O)N1 [compound 465]
27,0.073 nM,COc1nc(-c2cccc(-c3cccc(-c4cnc(CNC5CCN(C(N)=O)CC5)c(OC)n4)c3Cl)c2Cl)cnc1CNC1CCN(C(N)=O)CC1 [compound 466]
28,0.146 nM,COc1nc(-c2cccc(-c3cccc(-c4cnc(CNCC5CCN(C(N)=O)C5)c(OC)n4)c3Cl)c2Cl)cnc1CNCC1CCN(C(N)=O)C1 (centres unmarked) [compound 467]
29,0.123 nM,CNC(=O)C1CCN(Cc2ncc(-c3cccc(-c4cccc(-c5cnc(CC6CCN(C(=O)NC)C6)c(OC)n5)c4Cl)c3Cl)nc2OC)C1 (centres unmarked) [compound 468]

# Continued, compound first:
row,SMILES,IC50
1,COc1nc(-c2cccc(-c3cccc(-c4cnc(CNC[C@@H]5CCC(=O)N5)c(OC)n4)c3Cl)c2Cl)cnc1CNCC(O)CN1CCCC1 (some centres unmarked) [compound 413],0.162 nM
2,COc1ccnc2c1CN(Cc1ncc(-c3cccc(-c4cccc(-c5cnc(CNC[C@@H]6CCC(=O)N6)c(OC)n5)c4Cl)c3Cl)nc1OC)C2 [compound 414],0.559 nM
3,COc1nc(-c2cccc(-c3cccc(-c4cnc(CNC5CCN(C(=O)c6ccoc6)CC5)c(OC)n4)c3Cl)c2Cl)cnc1CNC[C@@H]1CCC(=O)N1 [compound 415],0.195 nM
4,COc1nc(-c2cccc(-c3cccc(-c4cnc(CNC5CCN(C)C(=O)C5)c(OC)n4)c3Cl)c2Cl)cnc1CNC[C@@H]1CCC(=O)N1 (some centres unmarked) [compound 416],0.14 nM
5,COc1nc(-c2cccc(-c3cccc(-c4cnc(CNC[C@@H]5CCC(=O)N5)c(OC)n4)c3Cl)c2Cl)cnc1CNCCc1ccccn1 [compound 417],0.196 nM
6,COc1nc(-c2cccc(-c3cccc(-c4cnc(CNC[C@@H]5CCC(=O)N5)c(OC)n4)c3Cl)c2Cl)cnc1CNCc1ccccn1 [compound 418],0.219 nM
7,COc1nc(-c2cccc(-c3cccc(-c4cnc(CNC[C@@H]5CCC(=O)N5)c(OC)n4)c3Cl)c2Cl)cnc1CNCCCc1nc2ccccc2[nH]1 [compound 419],0.542 nM
8,COc1nc(-c2cccc(-c3cccc(-c4cnc(CNC[C@@H]5CCC(=O)N5)c(OC)n4)c3Cl)c2Cl)cnc1CNCc1ncccn1 [compound 420],0.449 nM
9,COc1nc(-c2cccc(-c3cccc(-c4cnc(CNC5(c6ccccn6)CC5)c(OC)n4)c3Cl)c2Cl)cnc1CNC[C@@H]1CCC(=O)N1 [compound 421],0.603 nM
10,COc1nc(-c2cccc(-c3cccc(-c4cnc(CNC[C@@H]5CCC(=O)N5)c(OC)n4)c3Cl)c2Cl)cnc1CNCc1ccncc1 [compound 422],0.554 nM
11,COc1nc(-c2cccc(-c3cccc(-c4cnc(CN5C[C@H](O)C[C@H]5CO)c(OC)n4)c3Cl)c2Cl)cnc1CNC[C@@H]1CCC(=O)N1 [compound 423],0.237 nM
12,COc1nc(-c2cccc(-c3cccc(-c4cnc(CNC5(c6cccnc6)CC5)c(OC)n4)c3Cl)c2Cl)cnc1CNC[C@@H]1CCC(=O)N1 [compound 424],0.617 nM
13,COc1nc(-c2cccc(-c3cccc(-c4cnc(CNC[C@@H]5CCC(=O)N5)c(OC)n4)c3Cl)c2Cl)cnc1CNCc1cccnc1 [compound 425],0.414 nM
14,COc1nc(-c2cccc(-c3cccc(-c4cnc(CNCC5(O)CC5)c(OC)n4)c3Cl)c2Cl)cnc1CNC[C@@H]1CCC(=O)N1 [compound 426],0.273 nM
15,COc1nc(-c2cccc(-c3cccc(-c4cnc(CN5CC[C@@H](OC)C5)c(OC)n4)c3Cl)c2Cl)cnc1CNC[C@@H]1CCC(=O)N1 [compound 427],0.136 nM
16,COc1nc(-c2cccc(-c3cccc(-c4cnc(CNC(CO)(CO)CO)c(OC)n4)c3Cl)c2Cl)cnc1CNC[C@@H]1CCC(=O)N1 [compound 428],0.272 nM
17,COc1nc(-c2cccc(-c3cccc(-c4cnc(CNCC5(C#N)CC5)c(OC)n4)c3Cl)c2Cl)cnc1CNC[C@@H]1CCC(=O)N1 [compound 429],0.349 nM
18,COc1nc(-c2cccc(-c3cccc(-c4cnc(CN5CC[C@H](OC)C5)c(OC)n4)c3Cl)c2Cl)cnc1CNC[C@@H]1CCC(=O)N1 [compound 430],0.071 nM
19,COc1nc(-c2cccc(-c3cccc(-c4cnc(CN5CC[C@H](O)C5)c(OC)n4)c3Cl)c2Cl)cnc1CNC[C@@H]1CCC(=O)N1 [compound 431],0.124 nM
20,COc1nc(-c2cccc(-c3cccc(-c4cnc(CN[C@H]5C[C@](O)(CF)C5)c(OC)n4)c3Cl)c2Cl)cnc1CNC[C@@H]1CCC(=O)N1 [compound 432],0.084 nM
21,COc1nc(-c2cccc(-c3cccc(-c4cnc(CNC[C@@H]5CCC(=O)N5)c(OC)n4)c3Cl)c2Cl)cnc1CNCC1OCCO1 [compound 433],0.259 nM
22,COc1nc(-c2cccc(-c3cccc(-c4cnc(CNCC[C@@H]5CCC(=O)N5)c(OC)n4)c3Cl)c2Cl)cnc1CNCC[C@@H]1CCC(=O)N1 [compound 434],0.064 nM
23,COc1nc(-c2cccc(-c3cccc(-c4cnc(CNC[C@@H]5CCC(=O)N5)c(OC)n4)c3Cl)c2Cl)cnc1CNC[C@@H]1CNC(=O)C1 [compound 435],0.064 nM
24,COc1nc(-c2cccc(-c3cccc(-c4cnc(CN)c(OC)n4)c3Cl)c2Cl)ccc1CN [compound 436],5.46 nM
25,COc1nc(-c2cccc(-c3cccc(-c4cnc(CN5CC6(CNC(=O)C6)C5)c(OC)n4)c3Cl)c2Cl)ccc1CN1CC2(CNC(=O)C2)C1 [compound 437],0.086 nM
26,"COc1nc(-c2cccc(-c3cccc(-c4cnc(CN5CC(OC)C5)c(OC)n4)c3Cl)c2Cl)ccc1CN1CC(OC)C1 [compound 438, 5-(2,2′-dichloro-3′-(6-methoxy-5-((3-methoxyazetidin-1-yl)methyl)pyridin-2-yl)-[1,1′-biphenyl]-3-yl)-3-methoxy-2-((3-methoxyazetidin-1-yl)methyl)pyrazine]",1.34 nM
27,COc1nc(-c2cccc(-c3cccc(-c4cnc(CN5CC(O)C5)c(OC)n4)c3Cl)c2Cl)ccc1CN1CC(O)C1 [compound 439],0.646 nM

# Reference: patent publication US10710986B2, “PD-1/PD-L1 inhibitors” (Gilead Sciences, Inc., priority 2018, dated 2020)
